How the values were obtained:
[1] = system: WKY (control) or SHR adolescent rats; experiment: Grip test (muscular strength); format: in vivo, rat; conditions: WKY and SHR rats (40-45 days old), 200 mg/kg i.p., 1 hour after administration, p=0.058, listed as STP
Protocol: The grip test measures the muscular strength of the animal. This test is used to identify myorelaxant properties of compounds. An electronic system is used (Bioseb) to measure the force developed by a rat grasping a T-shape bar with its forelimb. Five consecutive measures are taken, data are expressed as mean±standard error of mean. […] Measures are taken 60 minutes after intraperitoneal (i.p.) injection.
Stiripentol (batch 176, dissolved in 5% tween 80 in 0.9% NaCl) was administered i.p. at the dose of 200 mg/kg with an injection volume of 10 ml/kg.
Data are represented as the mean±standard error of mean (S.E.M.). The difference between Stiripentol and vehicle treated rats, was assessed with an ANOVA or repeated measures ANOVA (one factor repetition). Significance was set at p<0.05 (Sigma Stat, v3.5, SPSS, Chicago, USA).

[2] = several animal models; cited from earlier work
[3] = system: Spontaneously Hypertensive Rat (SHR); experiment: Actimetry (opto-varimex), juvenile SHR rats; format: in vivo; conditions: 200 mg/kg i.p., vs vehicle
Protocol: (§1) Juvenile (25-30 days old, 80-120 g) or adolescent (40-45 days old, 140-160 g) male Wistar SHR rats or the control strain Wistar kyoto (WKY) rats, from River Germany, were used in this study. They were housed 2 per cage (Techniplast ref. 1291), and maintained in a 12 h light/dark cycle (light ON at 7 AM). Food and water were provided ad libitum. Rats were acclimated to the animal facilities at least 5 days before testing started. The experiments were conducted in accordance with the European Recommendations (directive 86/609/EEC) for the use and care of laboratory animals.
(§2) Animals are placed in the opto-varimex system (Plexiglas arena, 42×42 cm, Columbus Instruments, Columbus, Ohio), an automated system to quantify their activity as horizontal or vertical movements. Animals are habituated to the behavioral room for one hour before the beginning of the test, illumination intensity is around 400 lux. Activity is recorded immediately after placing the animal in the system, forty five minutes after injection, for a one hour period. Animals are assigned to a test group and tested only once. […]
(§3) Data are represented as the mean±standard error of mean (S.E.M.). The difference between Stiripentol and vehicle treated rats, was assessed with an ANOVA or repeated measures ANOVA (one factor repetition). […]

Wistar kyoto (WKY) rats [4] = experiment: Actimetry (opto-varimex), juvenile WKY control rats; format: in vivo, rat; conditions: 200 mg/kg i.p., vs vehicle
Protocol: as §1, §2, §3

Wistar kyoto (WKY) rats [5] = experiment: Open field test, juvenile WKY control rats; format: in vivo, rat; conditions: 200 mg/kg i.p., second 10 minutes period, vs vehicle
Protocol: as §1
Rats are placed in the middle of an open field (a closed arena of 1 m×1 m), and recorded with a videotracking system (Videotrack, Viewpoint S.A., Lyon France). The arena is separated in 9 equivalent zones on the analysis software. Illumination intensity is set around 30 lux. The number of rearings and zone changes is recorded during 2 consecutive 10 minutes periods. The test is started forty five minutes after vehicle or STP injection. For juvenile rats (around 25 days old, n=30 SHR rats, n=30 WKY rats), each rat was randomly assigned to a test group and tested once. […]
as §3

[6] = system: epilepsy seizures in children presenting with Dravet syndrome; conditions: add-on therapy to valproate and clobazam; cited from earlier work
[7] = system: Spontaneously Hypertensive Rat (SHR); experiment: Open field test, juvenile SHR rats; format: in vivo; conditions: 200 mg/kg i.p., second 10 minutes period, vs vehicle, p<0.001
Description: The inventors have examined the potential new therapeutic application of Stiripentol (STP, Diacomit®) in attention deficit and hyperactivity disorder (ADHD). For this, the effect of an acute administration of Stiripentol, on hyperactivity in rats was studied. The model chosen for this study is the Spontaneously Hypertensive Rat (SHR), a rat model that has been described as a model for hyperactivity (Sagvolden et al. (1992) Behav. Neural. Biol. 58:103-112; Sagvolden et al. (2009) Neuropharmacology 57:619-626; Davids et al. (2003) Brain Res. Brain Res. Rev. 42:1-21) and three behavioral tests were run: an open field test, an actimetry test and a grip test.
Juvenile (25-30 days old, 80-120 g) or adolescent (40-45 days old, 140-160 g) male Wistar SHR rats or the control strain Wistar kyoto (WKY) rats, from River Germany, were used in this study. […]
Rats are placed in the middle of an open field (a closed arena of 1 m×1 m), and recorded with a videotracking system (Videotrack, Viewpoint S.A., Lyon France). […] The number of rearings and zone changes is recorded during 2 consecutive 10 minutes periods. […]
as §3

strength developed in the grip test (myorelaxant effect) [1]: no significant effect
Compound: CC(C)(C)C(O)/C=C/c1ccc2c(c1)OCO2 (racemic) [Stiripentol, 1-penten-3-ol,1-(1,3-benzodioxol)-4,4-dimethyl]
anticonvulsant activity [2]: shown anticonvulsant activity
rearing behavior in actimetry [3]: statistically decreases
locomotor (ambulatory) activity in actimetry (Wistar kyoto (WKY) rats [4]; WKY control juvenile rats, one hour recording): no effect
number of rearings in actimetry (Wistar kyoto (WKY) rats [4]; WKY juvenile rats): no effect
rearing activity in open field (Wistar kyoto (WKY) rats [5]): no effect
efficacy in controlling epilepsy seizures (responder rate) [6]: demonstrated
rearing activity in open field ([7]; SHR juvenile rats (25 days old)): significantly decreases
number of zone changes in open field ([7]; SHR juvenile rats): decreased

From patent US20160331723A1, “PHARMACOLOGICAL TREATMENT OF ATTENTION DEFICIT AND/OR HYPERACTIVITY” (BIOCODEX, priority 2013, published 2016)
